Measurements published in US8383615B2, “Azetidine 2-carboxamide derivatives which modulate the CB2 receptor” (Boehringer Ingelheim International GmbH, priority 2009, dated 2013).
Like-named read-outs stand apart in the source and are kept apart here.

Target: T1, human CB2R (Homo sapiens, UniProt P34972)
T1 construct: host or cells: CHO cells
Experiment: CB2R mediated modulation of cAMP synthesis
Type: cell-based
Conditions: CHO cells expressing human CB2R, inhibition of forskolin-stimulated cAMP synthesis, agonist
Procedure: B. CB2R Mediated Modulation of cAMP Synthesis:
Compounds of the invention were evaluated for their CB2 agonist or inverse agonistic activity in accordance with the following experimental method.
CHO cells expressing human CB2R (Euroscreen) were plated at a density of 5000 cells per well in 384 well plates and incubated overnight at 37° C. After removing the media, the cells were treated with test compounds diluted in stimulation buffer containing 1 mM IBMX, 0.25% BSA and 10 uM Forskolin. The assay was incubated for 30 minutes at 37° C. Cells were lysed and the cAMP concentration was measured using DiscoverX-XS cAMP kit, following the manufacturer's protocol. In this setting, agonists will decrease forskolin induced production of cAMP while inverse agonists will further increase forskolin induced production of cAMP. EC50 of agonists were calculated as follows. The maximal amount of cAMP produced by forskolin compared to the level of cAMP inhibited by 1 uM CP55940 is defined as 100%. The EC50 value of each test compound was determined as the concentration at which 50% of the forskolin-stimulated cAMP synthesis was inhibited. Data was analyzed using a four-parameter logistic model. (Model 205 of XLfit 4.0).

T1 sequence (P34972 whole entry): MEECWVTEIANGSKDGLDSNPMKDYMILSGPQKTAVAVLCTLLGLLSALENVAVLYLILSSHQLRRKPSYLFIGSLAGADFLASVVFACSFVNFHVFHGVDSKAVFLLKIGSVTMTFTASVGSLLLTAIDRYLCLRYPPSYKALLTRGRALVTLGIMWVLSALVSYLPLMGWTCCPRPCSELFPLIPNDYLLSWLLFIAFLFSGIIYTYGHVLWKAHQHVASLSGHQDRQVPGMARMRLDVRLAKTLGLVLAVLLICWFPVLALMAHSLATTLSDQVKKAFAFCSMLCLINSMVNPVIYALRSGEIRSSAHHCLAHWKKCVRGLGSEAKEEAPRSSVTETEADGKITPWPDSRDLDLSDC

CC(C)(C)c1cc(NC(=O)[C@@H]2CC(=O)N2c2ccc(Cl)cc2)on1
EC50 (CB2 EC50 (nM)): 17 nM

CC(C)(C)c1cc(NC(=O)[C@@H]2CCN2c2ccc(Cl)cc2)no1
EC50 (CB2 EC50 (nM)): 1.7 nM

CC(C)(C)c1coc(NC(=O)[C@@H]2CCN2C2CCOCC2)n1
EC50 (CB2 EC50 (nM)): 206 nM

O=C(Nc1ccc(C(F)(F)F)c(F)c1)[C@@H]1CCN1C1CCOCC1
EC50 (read-out: CB2 EC50): 371 nM

O=C(Nc1nc2c(F)cccc2s1)[C@@H]1CCN1C1CCOCC1
EC50 (CB2 EC50 (nM)): 153 nM

COCC(C)(C)c1cc(NC(=O)[C@@H]2CCN2c2ccc(F)cc2)on1
EC50 (CB2 EC50 (nM)): 5.6 nM

CC(C)(C)c1cc(NC(=O)[C@@H]2CCN2C2CCOCC2)no1 [drawing 132]
EC50 (CB2 EC50 (nM)): 18 nM

CCc1sc(NC(=O)[C@@H]2CCN2CC2CCOCC2)nc1-c1ccccc1
EC50 (CB2 EC50 (nM)): 4.1 nM

CC(C)(C)c1cc(NC(=O)[C@@H]2CCN2c2ncc(C(F)(F)F)cc2Cl)no1 [drawing 125]
EC50 (CB2 EC50 (nM)): 0.02 nM

CC(C)(C)c1cc(NC(=O)[C@@H]2CCN2C2CCCC2)on1
EC50 (CB2 EC50 (nM)): 6.6 nM

CC(C)(C)Cc1cc(NC(=O)[C@@H]2CCN2C2CCOCC2)on1
EC50 (CB2 EC50 (nM)): 243 nM

CC(C)(C)c1cc(NC(=O)[C@@H]2CCN2C2CCOCC2)sn1
EC50 (CB2 EC50 (nM)): 313 nM

CCc1sc(NC(=O)[C@@H]2CCN2C2CCOCC2)nc1-c1ccccc1
EC50 (CB2 EC50 (nM)): 116 nM

COCC(C)(C)c1cc(NC(=O)[C@@H]2CCN2c2ccc(F)cc2)no1
EC50 (CB2 EC50 (nM)): 7.7 nM

CC(C)N1CC[C@H]1C(=O)Nc1cc(C(C)(C)C)no1
EC50 (CB2 EC50 (nM)): 26 nM

CC(C)(C)c1cc(NC(=O)[C@@H]2CCN2C2CCOCC2)no1 [drawing 128]
EC50 (CB2 EC50 (nM)): 8.8 nM

CCCS(=O)(=O)N1CC[C@H]1C(=O)Nc1cc(C(C)(C)C)on1
EC50 (CB2 EC50 (nM)): 157 nM

O=C(Nc1nc(-c2ccccc2)cs1)[C@@H]1CCN1C1CCOCC1
EC50 (read-out: CB2 EC50): 465 nM

CC(C)(C)c1cc(NC(=O)[C@@H]2CCN2c2ncc(C(F)(F)F)cc2Cl)no1 [drawing 126]
EC50 (CB2 EC50 (nM)): 0.05 nM

CC(C)(C)c1cc(NC(=O)[C@@H]2CCN2C(=O)C2CCC(F)(F)CC2)no1
EC50 (read-out: CB2 EC50): 127 nM

CC(C)(C)c1cc(NC(=O)[C@@H]2CCN2S(=O)(=O)c2ccc(S(C)(=O)=O)cc2)no1
EC50 (CB2 EC50 (nM)): 197 nM

CC(C)(CO)c1cc(NC(=O)[C@@H]2CCN2c2ccc(F)cc2)on1
EC50 (CB2 EC50 (nM)): 22 nM

CCc1sc(NC(=O)[C@@H]2CCN2c2ccc(C(F)(F)F)cn2)nc1-c1ccccc1
EC50 (CB2 EC50 (nM)): 128 nM

O=C(Nc1nc(-c2ccc(F)c(F)c2)cs1)[C@@H]1CCN1C1CCOCC1
EC50 (CB2 EC50 (nM)): 203 nM

COCC(C)(C)c1cc(NC(=O)[C@@H]2CCN2C2CCOCC2)on1
EC50 (CB2 EC50 (nM)): 75 nM

O=C(Nc1nc(C2CCCCC2)cs1)[C@@H]1CCN1C1CCOCC1
EC50 (CB2 EC50 (nM)): 56 nM

CCc1sc(NC(=O)[C@@H]2CCN2c2ncc(C(F)(F)F)cc2Cl)nc1-c1ccccc1
EC50 (CB2 EC50 (nM)): 2.7 nM

CC(C)(C)c1cc(NC(=O)[C@@H]2CCN2Cc2ccc(F)c(F)c2)on1
EC50 (CB2 EC50 (nM)): 14 nM

CC(C)(C)c1cc(NC(=O)[C@@H]2CCN2c2ccc(Cl)cc2)on1
EC50 (CB2 EC50 (nM)): 0.75 nM

CC(C)(CO)c1cc(NC(=O)[C@@H]2CCN2c2ncc(C(F)(F)F)cc2Cl)on1
EC50 (CB2 EC50 (nM)): 0.12 nM

O=C(Nc1cc(C(F)(F)F)no1)[C@@H]1CCN1c1ccc(Cl)cc1
EC50 (CB2 EC50 (nM)): 43 nM

CC(C)(C)c1cc(NC(=O)[C@@H]2CC(=O)N2c2ccc(Cl)cc2)no1
EC50 (CB2 EC50 (nM)): 50 nM

CC(C)(C)c1cc(NC(=O)[C@@H]2CCN2C2CCCCC2)on1
EC50 (CB2 EC50 (nM)): 0.08 nM

COCC(C)(C)c1cc(NC(=O)[C@@H]2CCN2c2ccc(Cl)cc2)no1
EC50 (CB2 EC50 (nM)): 12 nM

CC(C)(CO)c1cc(NC(=O)[C@@H]2CCN2c2ccc(C(F)(F)F)cn2)on1
EC50 (CB2 EC50 (nM)): 18 nM

CC(C)(CO)c1cc(NC(=O)[C@@H]2CCN2c2ccc(Cl)cc2)on1
EC50 (CB2 EC50 (nM)): 18 nM

CC(C)(C)c1cc(NC(=O)[C@@H]2CCN2c2ccc(C(F)(F)F)cn2)on1
EC50 (CB2 EC50 (nM)): 0.67 nM

CC(C)(C)c1nsc(NC(=O)[C@@H]2CCN2C2CCOCC2)n1
EC50 (CB2 EC50 (nM)): 471 nM

O=C(Nc1nc2cc(Cl)ccc2s1)[C@@H]1CCN1C1CCOCC1
EC50 (CB2 EC50 (nM)): 86 nM

CC(C)(C)c1cc(NC(=O)[C@@H]2CCN2S(=O)(=O)c2ccc(S(C)(=O)=O)cc2)on1
EC50 (CB2 EC50 (nM)): 357 nM
